Laboratory results reported in patent US4533655A, “Analgesic dipeptide amides and method of use and compositions thereof” (Sterling Drug Inc., priority 1982, dated 1985).

What was measured:
[1] = system: Male Swiss-Webster mice; assay: Mouse acetylcholine writhing test; assay type: in vivo; details: 20 min, subcutaneous, acetylcholine 3.2 mg./kg. i.p. 20 min after dosing, 95% confidence limits in parentheses
Protocol: Male Swiss-Webster mice each weighing 18-24 g. are treated subcutaneously (10 ml./kg. injection volume) or orally with the test compound in an aqueous vehicle. Twenty minutes thereafter each mouse is injected intraperitoneally with acetylcholine (3.2 mg./kg.) in aqueous sodium chloride (0.9%). This dose of acetylcholine causes one or more characteristic writhes in the two minute period following injection in control mice which receive the aqueous vehicle not containing the test compound. […] Test compounds are screened at doses of 100 and 30 mg./kg. subcutaneously and 300 and 100 mg./kg. orally using 15 mice at each dose level. ED50 values for active compounds are estimated by probit analysis of quantal scores at four or more dose levels using 15 mice at each dose level.

[2] = system: guinea pig ileum longitudinal muscle (electrically induced twitch); assay: Guinea pig ileum test; assay type: cell-based; details: ratio of IC50 of reference Met^5-enkephalin to IC50 of test compound in same preparation, averaged (N=4); Met^5-enkephalin = 100
Protocol: Adult male guinea pigs (Charles River, Hartley strain) weighing 300-500 g. are decapitated, and the terminal ileum is exposed by reflecting the overlying cecum, severed at the ileocecal juncture, and removed while cutting the mesenteric attachments to avoid excessive traction on the tissue. The ileum (about 30 cm. in length) is transferred to a beaker containing warm modified Krebs-Henseleit solution (118 mM sodium chloride, 4.75 mM potassium chloride, 2.54 mM calcium chloride, 1.19 mM potassium dihydrogen phosphate, 1.2 mM magnesium sulfate, 25 mM sodium bicarbonate, 11 mM glucose, 20 μM choline chloride and 0.125 μM pyrilamine maleate). The terminal (aboral) portion (about 10 cm. in length) is discarded, and segments (3-4 cm. in length) are cut from the remainder and gently slid onto a glass rod (5-6 mm. in diameter) and arranged so that the mesenteric attachment is in a straight line. A cotton swab moistened in the solution is then carefully used to separate the longitudinal muscle from the underlying circular muscle. The longitudinal muscle and adhering myenteric plexus is then gently removed from the remaining tissue with forceps.
Strips of this prepared longitudinal muscle are mounted in a double-jacketed organ bath (5 ml.) under tension (1.0 g.), connected to isometric transducers (Grass FT 0.03), bathed in the modified Krebs-Henseleit solution described above, aerated with oxygen-carbon dioxide (95:5) and maintained at 37° C.
Stimulators (Grass S-44) are set to deliver repetitive monophasic square wave field stimulation (supramaximal voltage, 0.10 Hz., 0.25 msec. duration) through platinum ring electrodes at the top and bottom of the bath. Regular contractions of the muscle, which result from electrically-induced liberation of acetylcholine from postganglionic parasympathetic nerves, are recorded on a polygraph (Grass model 5). Following tissue equilibration (45-60 min.) and repeated washing (every 10 min.) an aqueous solution of a reference or test compound is added to the bath in a microliter volume (1.25-250 μl) and reductions in muscle twitch height are recorded. More compound can be added […] first washing the preparation.
From the results a half-mazimal inhibitory concentration (IC50) value for the compound is computed by regression analysis of a linear plot of logarithm of concentration against percent of inhibition of twitch height (probits). The ratio of the IC50 value of a reference compound to that of a test compound tested in the same preparation is the molar potency ratio. Usually four preparations are tested simultaneously by the same person (N=4), and the resulting four molar potency ratios are averaged.
The following results were obtained using the examples as test compounds and Met^5 -enkephalin as the reference compound.

[3] = system: rat; details: rat tail flick, relative to morphine, cited from earlier work
[4] = system: guinea pig ileum; details: cited from earlier work
[5] = system: mouse vas deferens; details: cited from earlier work

Row | Compound | ED50 [1] | Average Molar Potency Ratio [2] | other results
1 | C[C@H](C(=O)NCCCc1ccccc1)N(C)C(=O)[C@@H](N)Cc1ccc(O)cc1 [Example 1, L-tyrosyl-N^2-methyl-N-(3-phenylpropyl)-D-alaninamide] | 5.5 mg/kg | 293 | –
2 | CN[C@@H](Cc1ccc(O)cc1)C(=O)N[C@H](C)C(=O)NCCCc1ccccc1 [Example 2, N-methyl-L-tyrosyl-N-(3-phenylpropyl)-D-alaninamide] | 10 to 30 mg/kg | 194 | –
3 | CN[C@@H](Cc1ccc(O)cc1)C(=O)N(C)[C@H](C)C(=O)NCCCc1ccccc1 [Example 3, N-methyl-L-tyrosyl-N^2-methyl-N-(3-phenylpropyl)-D-alaninamide] | 9.4 mg/kg | 200 | –
4 | CCN(C(=O)[C@@H](N)Cc1ccc(O)cc1)[C@H](C)C(=O)NCCCc1ccccc1 [Example 4, L-tyrosyl-N^2-ethyl-N-(3-phenylpropyl)-D-alaninamide] | – | 12 | –
5 | C[C@H](C(=O)NCCCc1ccc(Cl)cc1)N(C)C(=O)[C@@H](N)Cc1ccc(O)cc1 [Example 5, L-tyrosyl-N^2-methyl-N-[3-(4-chlorophenyl)propyl]-D-alaninamide] | – | 51 | –
6 | C[C@H](C(=O)NCCCc1ccc(C(F)(F)F)cc1)N(C)C(=O)[C@@H](N)Cc1ccc(O)cc1 [Example 6, L-tyrosyl-N^2-methyl-N-[3-(4-trifluoromethylphenyl)propyl]-D-alaninamide] | – | 13 | –
7 | C[C@H](C(=O)NCCCc1ccc(F)cc1)N(C)C(=O)[C@@H](N)Cc1ccc(O)cc1 [Example 7, L-tyrosyl-N^2-methyl-N-[3-(4-fluorophenyl)propyl]-D-alaninamide] | – | 178 | –
8 | C[C@@H](NC(=O)[C@@H](N)Cc1ccc(O)cc1)C(N)=O [H-Tyr-D-Ala-NH2] | – | – | times less potent than morphine, intravenously ([3]; intravenous): greater than 10 times; times less potent than morphine, intraventricularly ([3]; intraventricular): 200 times
9 | C[C@@H](NC(=O)[C@@H](N)Cc1ccc(O)cc1)C(=O)NCCNCCc1ccccc1 [HTyrD-AlaNH(CH2)2 NH(CH2)2 Phenyl] | – | – | potency relative to Met-enkephaline [4]: < 1%; potency relative to Met-enkephaline [5]: < 1%
10 | Met^5 -enkephalin [reference compound] | – | 100 | –
